Values quoted from earlier work in patent US11141456B2, “Therapeutic compositions including frataxin, lactoferrin, and mitochondrial energy generating enzymes, and uses thereof” (Stealth BioTherapeutics Corp, priority 2014, dated 2021).

Tested on: several mammalian cell types
Conditions: energy-independent manner; cited from earlier work

2′,6′-Dmt-D-Arg-Phe-Lys-NH2
penetration of the plasma membrane: readily penetrates the plasma membrane
